{"source": "patent EP3858818A1", "about": "“TRIKETONE COMPOUND, PREPARATION METHOD THEREFOR AND USE THEREOF, AND HERBICIDE” (Shandong Cynda Chemical Co., LTD., priority 2018, dated 2020)", "format_in_all_cases": "in vivo", "key": {"Setaria viridis [1]": {"test_system": "Setaria viridis", "test": "Preliminary screening test (pot-culture method), post-emergence stem and leaf spray", "settings": "150 g.a.i/ha; stems and leaves sprayed at 4-5 leaves stage; investigated after 30 days; visual rating", "source_text": "(§1) Preliminary screening test (pot-culture method): the targets of the test are Echinochloa crusgalli, Digitaria sanguinalis, Setaria viridis, Amaranthus tricolor, Chenopodium album, Abutilontheophrasti. Spraying the stems and leaves after seedlings: taking a paper cup with an inner diameter of 7 cm and fill it with composite soil (vegetable garden soil: seedling substrate, 1: 2, v/v) to 3/4 of the cup. Sowing weeds directly, cover it with 0.2 cm soil and wait until it grows to 4-5 leaves stage for later use. The compounds of the invention and the aforementioned comparative compound D1 are applied in an automatic spray tower at a dose of 150 g.a.i/ha (g/ha). After the liquid on the crop leaves is dried in the air, the crops are transferred to the greenhouse for cultivation (humidity 70%), and the results were investigated after 30 days.\n(§2) The growth inhibition rate evaluation method is a visual method. The growth inhibition rate is rated specifically according to the conditions shown in table 2, and the test results are shown in Table 3."}, "Amaranthus tricolor": {"test_system": "Amaranthus tricolor", "test": "Preliminary screening test (pot-culture method), post-emergence stem and leaf spray", "settings": "150 g.a.i/ha; stems and leaves sprayed at 4-5 leaves stage; investigated after 30 days; visual rating", "source_text": "as §1, §2"}, "Chenopodium album": {"test_system": "Chenopodium album", "test": "Preliminary screening test (pot-culture method), post-emergence stem and leaf spray", "settings": "150 g.a.i/ha; stems and leaves sprayed at 4-5 leaves stage; investigated after 30 days; visual rating", "source_text": "as §1, §2"}, "Echinochloa crusgalli [2]": {"test_system": "Echinochloa crusgalli", "test": "Preliminary screening test (pot-culture method), post-emergence stem and leaf spray", "settings": "150 g.a.i/ha; stems and leaves sprayed at 4-5 leaves stage; investigated after 30 days; visual rating", "source_text": "as §1, §2"}, "Abutilon theophrasti": {"test_system": "Abutilon theophrasti", "test": "Preliminary screening test (pot-culture method), post-emergence stem and leaf spray", "settings": "150 g.a.i/ha; stems and leaves sprayed at 4-5 leaves stage; investigated after 30 days; visual rating", "source_text": "as §1, §2"}, "Digitaria sanguinalis [3]": {"test_system": "Digitaria sanguinalis", "test": "Preliminary screening test (pot-culture method), post-emergence stem and leaf spray", "settings": "150 g.a.i/ha; stems and leaves sprayed at 4-5 leaves stage; investigated after 30 days; visual rating", "source_text": "as §1, §2"}, "[4]": {"test_system": "Aegilops squarrosa, Avenafatua, Bromus japonicus, Alopecurus aequalis, and Alopecurus japonicus", "test": "Re-screening with reduced concentration, summary in text for gramineous weeds of wheat fields", "settings": "at three application concentrations (120, 60, 30 g.a.i/ha); result in words"}, "Alopecurus japonicus": {"test_system": "Alopecurus japonicus", "test": "Re-screen assay at low dose (pot-culture method)", "settings": "post-emergence spray, 30 days", "source_text": "as §1, §2\n(§3) The same method as in test example 1 is used to conduct re-screen assays at the low dose for representative compounds, and the results are shown in Table 4."}, "Setaria viridis [5]": {"test_system": "Setaria viridis", "test": "Re-screen assay at low dose (pot-culture method)", "settings": "post-emergence spray, 30 days", "source_text": "as §1, §2, §3"}, "Alopecurus aequalis": {"test_system": "Alopecurus aequalis", "test": "Re-screen assay at low dose (pot-culture method)", "settings": "post-emergence spray, 30 days", "source_text": "as §1, §2, §3"}, "Aegilops squarrosa": {"test_system": "Aegilops squarrosa", "test": "Re-screen assay at low dose (pot-culture method)", "settings": "post-emergence spray, 30 days", "source_text": "as §1, §2, §3"}, "Echinochloa crusgalli [6]": {"test_system": "Echinochloa crusgalli", "test": "Re-screen assay at low dose (pot-culture method)", "settings": "post-emergence spray, 30 days", "source_text": "as §1, §2, §3"}, "Digitaria sanguinalis [7]": {"test_system": "Digitaria sanguinalis", "test": "Re-screen assay at low dose (pot-culture method)", "settings": "post-emergence spray, 30 days", "source_text": "as §1, §2, §3"}, "Bromus japonicus": {"test_system": "Bromus japonicus", "test": "Re-screen assay at low dose (pot-culture method)", "settings": "post-emergence spray, 30 days", "source_text": "as §1, §2, §3"}, "Avena fatua": {"test_system": "Avena fatua", "test": "Re-screen assay at low dose (pot-culture method)", "settings": "post-emergence spray, 30 days", "source_text": "as §1, §2, §3"}}, "data": [{"smiles": "Cc1cccc(C)c1-n1c(=O)c2cc(C(=O)C3=C(O)CCCC3=O)ccc2n(C)c1=O", "note": "[Compound D1]", "values": [{"measurement": "Inhibition Level Setaria viridis", "setting": "Setaria viridis [1]", "result": "4 (weeds or crops die.)"}, {"measurement": "Inhibition Level Amaranthus tricolor", "setting": "Amaranthus tricolor", "result": "4 (weeds or crops die.)"}, {"measurement": "Inhibition Level Chenopodium album", "setting": "Chenopodium album", "result": "5 (weeds or crops die completely.)"}, {"measurement": "Inhibition Level Echinochloa crusgalli", "setting": "Echinochloa crusgalli [2]", "result": "4 (weeds or crops die.)"}, {"measurement": "Inhibition Level Abutilon theophrasti", "setting": "Abutilon theophrasti", "result": "4 (weeds or crops die.)"}, {"measurement": "Inhibition Level Digitaria sanguinalis", "setting": "Digitaria sanguinalis [3]", "result": "4 (weeds or crops die.)"}, {"measurement": "herbicidal activity on gramineous weeds in wheat fields", "setting": "[4]", "result": "hardly shows herbicidal activity"}, {"measurement": "Inhibition Level Alopecurus japonicus", "setting": "Alopecurus japonicus; 30 g.a.i/ha", "result": "0 (has no influence on the growth of weeds or crops and has no drug effect symptom.)"}, {"measurement": "Inhibition Level Alopecurus japonicus", "setting": "Alopecurus japonicus; 60 g.a.i/ha", "result": "0 (has no influence on the growth of weeds or crops and has no drug effect symptom.)"}, {"measurement": "Inhibition Level Alopecurus japonicus", "setting": "Alopecurus japonicus; 120 g.a.i/ha", "result": "0 (has no influence on the growth of weeds or crops and has no drug effect symptom.)"}, {"measurement": "Inhibition Level Setaria viridis", "setting": "Setaria viridis [5]; 30 g.a.i/ha", "result": "3 (weeds or crops are subject to severe growth inhibition.)"}, {"measurement": "Inhibition Level Setaria viridis", "setting": "Setaria viridis [5]; 60 g.a.i/ha", "result": "3 (weeds or crops are subject to severe growth inhibition.)"}, {"measurement": "Inhibition Level Setaria viridis", "setting": "Setaria viridis [5]; 120 g.a.i/ha", "result": "4 (weeds or crops die.)"}, {"measurement": "Inhibition Level Alopecurus aequalis", "setting": "Alopecurus aequalis; 30 g.a.i/ha", "result": "0 (has no influence on the growth of weeds or crops and has no drug effect symptom.)"}, {"measurement": "Inhibition Level Alopecurus aequalis", "setting": "Alopecurus aequalis; 60 g.a.i/ha", "result": "0 (has no influence on the growth of weeds or crops and has no drug effect symptom.)"}, {"measurement": "Inhibition Level Alopecurus aequalis", "setting": "Alopecurus aequalis; 120 g.a.i/ha", "result": "1 (slightly affects the growth of weeds or crops, and has no obvious drug effect symptom.)"}, {"measurement": "Inhibition Level Aegilops squarrosa", "setting": "Aegilops squarrosa; 30 g.a.i/ha", "result": "0 (has no influence on the growth of weeds or crops and has no drug effect symptom.)"}, {"measurement": "Inhibition Level Aegilops squarrosa", "setting": "Aegilops squarrosa; 60 g.a.i/ha", "result": "1 (slightly affects the growth of weeds or crops, and has no obvious drug effect symptom.)"}, {"measurement": "Inhibition Level Aegilops squarrosa", "setting": "Aegilops squarrosa; 120 g.a.i/ha", "result": "2 (has certain effect on weed or crop growth, and has obvious drug effect.)"}, {"measurement": "Inhibition Level Echinochloa crusgalli", "setting": "Echinochloa crusgalli [6]; 30 g.a.i/ha", "result": "3 (weeds or crops are subject to severe growth inhibition.)"}, {"measurement": "Inhibition Level Echinochloa crusgalli", "setting": "Echinochloa crusgalli [6]; 60 g.a.i/ha", "result": "3 (weeds or crops are subject to severe growth inhibition.)"}, {"measurement": "Inhibition Level Echinochloa crusgalli", "setting": "Echinochloa crusgalli [6]; 120 g.a.i/ha", "result": "4 (weeds or crops die.)"}, {"measurement": "Inhibition Level Digitaria sanguinalis", "setting": "Digitaria sanguinalis [7]; 30 g.a.i/ha", "result": "3 (weeds or crops are subject to severe growth inhibition.)"}, {"measurement": "Inhibition Level Digitaria sanguinalis", "setting": "Digitaria sanguinalis [7]; 60 g.a.i/ha", "result": "3 (weeds or crops are subject to severe growth inhibition.)"}, {"measurement": "Inhibition Level Digitaria sanguinalis", "setting": "Digitaria sanguinalis [7]; 120 g.a.i/ha", "result": "4 (weeds or crops die.)"}, {"measurement": "Inhibition Level Bromus japonicus", "setting": "Bromus japonicus; 30 g.a.i/ha", "result": "0 (has no influence on the growth of weeds or crops and has no drug effect symptom.)"}, {"measurement": "Inhibition Level Bromus japonicus", "setting": "Bromus japonicus; 60 g.a.i/ha", "result": "0 (has no influence on the growth of weeds or crops and has no drug effect symptom.)"}, {"measurement": "Inhibition Level Bromus japonicus", "setting": "Bromus japonicus; 120 g.a.i/ha", "result": "0 (has no influence on the growth of weeds or crops and has no drug effect symptom.)"}, {"measurement": "Inhibition Level Avena fatua", "setting": "Avena fatua; 30 g.a.i/ha", "result": "0 (has no influence on the growth of weeds or crops and has no drug effect symptom.)"}, {"measurement": "Inhibition Level Avena fatua", "setting": "Avena fatua; 60 g.a.i/ha", "result": "0 (has no influence on the growth of weeds or crops and has no drug effect symptom.)"}, {"measurement": "Inhibition Level Avena fatua", "setting": "Avena fatua; 120 g.a.i/ha", "result": "2 (has certain effect on weed or crop growth, and has obvious drug effect.)"}]}]}
